Test results published in patent US9878982B2, “Pyridine derivatives and anti-mycobacterial use thereof” (priority 2014, dated 2018).
Values after ≈ are worked out from the molar mass of the structure shown. Where two headings read alike, the source gives them in different places.

Legend:
[1] = in vitro; conditions: human
[2] = test system: Vero Cell; assay: Vero cell cytotoxicity (IC50); type: cell-based; conditions: African green monkey kidney cells; for IC50: Chlorocebus sabaeus, Vero
[3] = test system: M. tuberculosis H37R; assay: microbe, parasite or virus in culture; type: cell-based, Mycobacterium tuberculosis; conditions: for MIC: Mycobacterium tuberculosis, H37R, read-out: M. tuberculosis H37R LORA (MIC)
[4] = test system: M. tuberculosis H37Rv; assay: In vitro efficacy test using the H37Rv strain, Microplate Alamar Blue Assay (MABA) MIC; type: cell-based, Mycobacterium tuberculosis; conditions: for MIC: Mycobacterium tuberculosis, H37RV
[5] = test system: Mycobacterium tuberculosis (ATCC35801); assay: In vivo efficacy in a mice model infected with M. tuberculosis by spray (lung bacteria load); conditions: female Balb/c mice, 25 mg/kg by gavage once each working day for four weeks, day 35, compared with the solvent treated group
[6] = test system: Hela; assay: Hela cell cytotoxicity (CC50); conditions: human cervical cancer cells; half of the toxic concentration
[7] = test system: Mycobacterium smegmatis strain ATCC19420; assay: In vitro efficacy test using Mycobacterium smegmatis strain ATCC19420 (MIC); type: cell-based; conditions: CA-MHB + 0.02% Tween 80, 30° C., read after 72 hours; for MIC: Mycolicibacterium smegmatis, ATCC19420, 72 h
[8] = Hela cell cytotoxicity (CC50); conditions: human, HeLa cells (human cervical cancer cells), CC50_Hela, half of the toxic concentration
[9] = aerobic, 7H9 medium, Alamar Blue, read-out: M. tuberculosis H37Rv MABA (MIC)
[10] = aerobic, 7H9 medium, Alamar Blue

SMILES	CC50 [1]	IC50 [2]	MIC [3]	MIC [4, 9]	MIC ([4]; wild-type H37Rv strain, two values per compound, read-out: MABA MIC vs. H37Rv)	MABA MIC vs. H37Rv ([4]; wild-type H37Rv strain, two values per compound)	reduction of the amount of the bacteria in the lungs [5]	Vero Cell (IC50) [2]	CC50_Hela [6]	M. smegmatis ATCC19420 MIC [7]	M. tuberculosis H37R LORA (MIC) [3]	M. tuberculosis H37Rv MABA (MIC) [4, 10]	CC50 [8]	MIC [7]
COc1nc2ccc(Br)cc2cc1[C@@H](c1ccccc1)[C@@](O)(CCN(C)C)c1cccc2ccccc12 [Bedaquiline, reference compound]	> 64 µg/mL	> 32 µg/mL	0.2 µg/mL (≈ 0.36 µM)	0.03 µg/mL	0.06 µM	0.05 µM	5.2 log							
COc1ncc(C2CCCC2)cc1C(c1ccccc1)C(O)(CCN(C)C)c1cccc2ccccc12 (stereo not shown) [Compound 64]								>50 µg/mL	28.75 µg/mL (≈ 58.1 µM)	0.5 µg/mL	3.06 µg/mL	2.33 µg/mL		
COc1ncc(C2CCCCC2)cc1C(c1ccccc1)C(O)(CCN(C)C)c1cccc2ccccc12 (stereo not shown) [Compound 103, 1-(5-cyclohexyl-2-methoxypyridin-3-yl)-4-(dimethylamino)-2-(naphthalen-1-yl)-1-phenylbutan-2-ol]		32.3 µg/mL (≈ 63.5 µM)	1.48 µg/mL (≈ 2.91 µM)	0.76 µg/mL					57.72 µg/mL (≈ 113 µM)	0.125 µg/mL				
COc1ncc(C2CCCCC2)cc1C(c1ccccc1)C(O)(CCN(C)C)c1cccc2ccccc12 (stereo not shown) [Compound 104, 1-(5-cyclohexyl-2-methoxypyridin-3-yl)-4-(dimethylamino)-2-(naphthalen-1-yl)-1-phenylbutan-2-ol]								>50 µg/mL	19.18 µg/mL (≈ 37.7 µM)	0.5 µg/mL	1.52 µg/mL	1.45 µg/mL		
COc1ncc(-c2csc(Br)c2)cc1C(c1ccccc1)C(O)(CCN(C)C)c1cccc2ccccc12 (stereo not shown) [Compound 275]								>32 µg/mL	>64 µg/mL	0.125 µg/mL	0.67 µg/mL	0.41 µg/mL		
COc1ncc(-c2ccc(Cl)cc2)cc1C(c1ccccc1)C(O)(CCN(C)C)c1cccc(F)c1 (stereo not shown) [Compound 297]		> 32 µg/mL	0.74 µg/mL (≈ 1.47 µM)	0.1 µg/mL									39.1 µg/mL (≈ 77.5 µM)	0.0312 µg/mL
COc1ccc(-c2cnc(OC)c(C(c3ccccc3)C(O)(CCN(C)C)c3cccc4ccccc34)c2)cc1 (stereo not shown) [Compound 299, 4-(dimethylamino)-1-(2-methoxy-5-(4-methoxyphenyl)pyridin-3-yl)-2-(naphthalen-1-yl)-1-phenylbutan-2-ol]		> 32 µg/mL	0.19 µg/mL (≈ 0.357 µM)	0.33 µg/mL									> 64 µg/mL	0.125 µg/mL
COc1ncc(-c2ccc(Cl)c(F)c2)cc1C(c1ccccc1)C(O)(CCN(C)C)c1cccc2ccccc12 (stereo not shown) [Compound 303, 1-(5-(4-chloro-3-fluorophenyl)-2-methoxypyridin-3-yl)-4-(dimethylamino)-2-(naphthalen-1-yl)-1-phenylbutan-2-ol]		> 32 µg/mL	0.52 µg/mL (≈ 0.937 µM)	0.19 µg/mL									> 64 µg/mL	0.0312 µg/mL
COc1ncc(-c2ccc(Br)cc2)cc1C(c1ccccc1)C(O)(CCN(C)C)c1cccc(F)c1F (stereo not shown) [Compound 312, 1-(5-(4-bromophenyl)-2-methoxypyridin-3-yl)-2-(2,3-difluorophenyl)-4-(dimethylamino)-1-phenylbutan-2-ol]		> 32 µg/mL	0.19 µg/mL (≈ 0.335 µM)	0.04 µg/mL									31.3 µg/mL (≈ 55.2 µM)	0.0156 µg/mL
COc1ncc(-c2ccc(Br)cc2)cc1C(c1ccccc1)C(O)(CCN(C)C)c1cc(F)cc(F)c1 (stereo not shown) [Compound 316, 1-(5-(4-bromophenyl)-2-methoxypyridin-3-yl)-2-(3,5-difluorophenyl)-4-dimethylamino-1-phenylbutan-2-ol]		> 32 µg/mL	2.97 µg/mL (≈ 5.23 µM)	0.04 µg/mL									> 64 µg/mL	0.0156 µg/mL
